Common to all, as to format: biochemical
In assay [1] the target is T1, CtHtrA (Chlamydia trachomatis serovar D, UniProt P18584).
T1 construct: His-tag; made in house; host or cells: E. coli BL21 (DE3), plasmid pETHtrA
T1 sequence (P18584 17-497): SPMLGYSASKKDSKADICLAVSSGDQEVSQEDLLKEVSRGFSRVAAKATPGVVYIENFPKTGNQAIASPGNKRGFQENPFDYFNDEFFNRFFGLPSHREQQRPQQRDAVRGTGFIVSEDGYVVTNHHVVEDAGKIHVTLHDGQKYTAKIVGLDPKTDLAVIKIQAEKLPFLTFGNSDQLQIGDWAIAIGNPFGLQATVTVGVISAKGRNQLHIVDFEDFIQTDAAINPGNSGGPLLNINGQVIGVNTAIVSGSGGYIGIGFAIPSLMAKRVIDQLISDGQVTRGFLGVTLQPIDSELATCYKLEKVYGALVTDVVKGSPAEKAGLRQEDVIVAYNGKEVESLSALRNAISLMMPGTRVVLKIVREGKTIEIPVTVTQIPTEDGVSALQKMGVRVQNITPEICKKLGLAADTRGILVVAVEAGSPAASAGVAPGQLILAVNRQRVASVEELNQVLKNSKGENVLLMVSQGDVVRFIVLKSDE
The experiment in a line: Protease assay with MCA/DNP-labelled fluorimetric peptides (REPLi library). The conditions noted are these: peptide based on the optimal activity for human HtrA2; data not shown. From the text: To further refine the CtHtrA substrate specificity, the REPLi peptide library (Mimotopes, Melbourne) was screened. The REPLi library peptides consist of a randomised tripeptide sequence flanked on either side by two GGG tripeptide sequences. The N-terminus of each peptide was labelled with a 7-methoxycoumarin (MCA) fluorophore, and the C-terminus was labelled with a 2,4-dinitrophenyl (DNP) fluorescent quencher. The peptides were pooled according to structural similarity and selected wells with high activity were then rescreened as individual peptides to identify the peptides cut by CtHtrA (Fig. S2, all wells where CtHtrA activity was observed). […] Cleavage at the glycine or terminal fluorophore or quenchers was never detected for any peptide. […]
(§1) The purified recombinant protein was examined by Coomassie stained polyacrylamide gels and activity was checked using ß-casein cleavage assays prior to use in peptide assays. […] Protease assays using pNA labelled peptides were conducted using the xMARK Microplate spectrophotometer (Bio-Rad) at 405 nm, incubated at 37°C, with a reading taken every 10 s for 30 min. The maximum slope over a minimum of 8 readings was used for the data analysis. […] The assays were excited at 340 nm and emission was detected at 405 nm with a gain of 1000, the assays were monitored every 20 s or at the minimum cycle time for up to 40 min. […]

Assay [2] addresses T1, CtHtrA. The experiment in a line: Activation of CtHtrA cleavage of Bcas1 substrate by added activator. As to conditions: substrate Bcas1 (MCA-ENLHLPLPIIF-DNP), fluorimetric, 37°C. The protocol:
(§2) To determine if the addition of a second peptide to the protease assays could activate or increase CtHtrA proteolysis, two activator peptides were tested in the CtHtrA cleavage of the model ß-casein peptide substrate Bcas1. The first was based on the ß-casein C-terminal sequence (Act1: NH2-VLGPVRGPFPIIV-OH) and the second on insulin b chain C-terminal sequence (Act2: NH2-CGELGFFYTP-OH).
Finally, in order to determine if the 24-mer (highest amount with MOMP protein, or Act1), or 12-mer, or both, corresponds to enhanced protease activity, the incubations of CtHtrA and these potential in vivo activators were used for protease assays with the Bcas1 substrate (Fig. 6). […] The presence of the majority of CtHtrA as higher order oligomers correlated with an increased rate of proteolysis for CtHtrA, particularly when these oligomers were predominately 24-mers.
The purified recombinant protein was examined by Coomassie stained polyacrylamide gels and activity was checked using ß-casein cleavage assays prior to use in peptide assays. Briefly, this involved incubating 2 µg of the protease with 10 µg of ß-casein in 50 mM Tris pH 7.0, 20 mM MgCl2 for 2 h prior to examining the assays by SDS PAGE (ß-casein and protease only controls were always conducted). Protease assays using peptides were conducted using custom synthesised peptides (Mimotopes). […] Protease assays using pNA labelled peptides were conducted using the xMARK Microplate spectrophotometer (Bio-Rad) at 405 nm, incubated at 37°C, with a reading taken every 10 s for 30 min. The maximum slope over a minimum of 8 readings was used for the data analysis. […] The assays were excited at 340 nm and emission was detected at 405 nm with a gain of 1000, the assays were monitored every 20 s or at the minimum cycle time for up to 40 min. […] The assay results shown for the fluorescent compounds have been normalised for the amount of fluorescent emission detected using a standard curve of known concentrations of the MCA fluorophore under the identical assay conditions. […]

Assay [3] addresses T1, CtHtrA. The experiment in a line: Activation of CtHtrA cleavage of pNA peptides by added activator peptide. The conditions noted are these: data not shown. The protocol:
as §2
One explanation for the observation of a lack of activation for some substrates could be that these substrates act as both activators and substrates by binding to both the active and allosteric sites of CtHtrA. In particular, the pNA peptides were not activated, which could imply that the pNA moiety itself may bind at the activation site. […]
as §1

Consider MCA-IRRVSYSF-DNP, for which, at CtHtrA [1], the “viability as substrate for CtHtrA” value was “not a viable substrate”.
Take QNIPF: the “effect of activator on rate of CtHtrA proteolysis of Bcas1” value at CtHtrA [2] was “did not activate CtHtrA cleavage of Bcas1”. Further, at CtHtrA [3], the “effect of activator peptide on CtHtrA cleavage of pNA peptides” value is on record as “did activate the cleavage of some of the pNA peptides tested”.
